Source: patent US20100022483A1, “Substituted Tetracycline Compounds” (Paratek Pharmaceuticals, Inc., priority 2008, published 2010)
Converted amounts (≈) assume the structure as drawn. Read-outs that look alike come from different tables or passages of the source.

Tests used:
gram negative bacteria = experiment: In vitro anti-bacterial activity assay (broth dilution MIC), gram negative bacteria; type: cell-based, E. coli
Procedure, shortened: (§1)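 Broth dilution MIC following CLSI M7-A2: compounds serially diluted, log-phase test strains added to final ~5×10^5 CFU/ml, incubated ~18 hours at 35° C in ambient air. Plates read on microplate reader or visually; MIC is lowest concentration inhibiting growth.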

[1] = Mammalian cytotoxicity assay (resazurin), COS-1 cells; type: cell-based; conditions: African green monkey, read-out: Cytotox. COS-1
Procedure, shortened: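 Cells seeded overnight at 37° C., 5% CO2, then exposed to serial compound dilutions for 24 hours. Medium replaced with resazurin (0.042 mg/ml in PBS with Ca and Mg) for 2 hours plus 30 minutes dark at room temperature; fluorescence read at ex 535/em 590 nm, IC50 taken as 50% growth inhibition.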

in vitro = type: cell-based; conditions: Chinese hamster, Cytotox. CHO-K1
gram positive bacteria = experiment: In vitro anti-bacterial activity assay (broth dilution MIC), gram positive bacteria; type: cell-based, S. aureus; conditions: 18 h
Procedure, shortened: as §1

3T3 fibroblast cells = experiment: In vitro phototoxicity assay (neutral red; UV light-treated vs dark control plates); type: cell-based; conditions: for Photo Toxicity UV Tox50: UV light 50 minutes; for Photo Toxicity Dark Tox50: dark control plate
Procedure, shortened: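 Neutral red viability readout (A535 after EtOH/acetic acid extraction) compares paired plates: one exposed 50 min to UV at 1.6–1.8 mW/cm^2, one held in darkness, both dosed with compound in HBSS and recovered overnight. 3T3 fibroblast cells used; phototoxicity taken as the difference.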

[2] = Escherichia coli, 18 h, E. coli D1 209, read-out: Median MIC's G− E. coli D1 209
[3] = Escherichia coli, 18 h, E. coli MG 1655, read-out: Median MIC's G− E. coli MG 1655
[4] = Escherichia coli, ATCC25922, 18 h, E. coli ATCC 25922, read-out: Median MIC's G− E. coli ATCC 25922
[5] = Pseudomonas aeruginosa, 18 h, P. aeruginosa K201 PAO6609, read-out: Median MIC's G− P. aeruginosa K201 PAO6609
[6] = Staphylococcus aureus, S. aureus MRSA5, read-out: Median MIC's G+ S. aureus MRSA5
[7] = Staphylococcus aureus, S. aureus RN450, read-out: Median MIC's G+ S. aureus RN450
[8] = Streptococcus pneumoniae, S. pneumoniae 157E-Strep, read-out: Median MIC's G+ S. pneumoniae 157E-Strep

SMILES	MIC (gram negative bacteria; [2]) [µg/mL]	MIC (gram negative bacteria; [3]) [µg/mL]	MIC (gram negative bacteria; [4]) [µg/mL]	MIC (gram negative bacteria; [5]) [µg/mL]	IC50 at 24 h [1] [µM]	IC50 at 24 h (in vitro) [µM]	MIC (gram positive bacteria; [6]) [µg/mL]	MIC (gram positive bacteria; [7]) [µg/mL]	MIC (gram positive bacteria; [8]) [µg/mL]	Photo Toxicity UV Tox50 (3T3 fibroblast cells) [µM]	Photo Toxicity Dark Tox50 (3T3 fibroblast cells) [µM]
C=CCNCC(=O)c1ccc(O)c2c1C[C@H]1C[C@H]3[C@H](N(C)C)C(O)=C(C(N)=O)C(=O)[C@@]3(O)C(O)=C1C2=O [BV]	64 (≈ 125 µM)	16 (≈ 31.3 µM)	32 (≈ 62.6 µM)	64 (≈ 125 µM)	> 122	27.6	32 (≈ 62.6 µM)	4 (≈ 7.82 µM)	1 (≈ 1.95 µM)	>121.69	>121.69
COCC(=O)c1ccc(O)c2c1C[C@H]1C[C@H]3[C@H](N(C)C)C(O)=C(C(N)=O)C(=O)[C@@]3(O)C(O)=C1C2=O [BW]	64 (≈ 132 µM)	0.5 (≈ 1.03 µM)	0.5 (≈ 1.03 µM)	32 (≈ 65.8 µM)	> 53.4	> 53.4	1 (≈ 2.06 µM)	0.06 (≈ 0.123 µM)	0.06 (≈ 0.123 µM)	>172.1	>172.1
CC(C)N1CCN(CC(=O)c2ccc(O)c3c2C[C@H]2C[C@H]4[C@H](N(C)C)C(O)=C(C(N)=O)C(=O)[C@@]4(O)C(O)=C2C3=O)CC1 [BX]	64 (≈ 110 µM)	8 (≈ 13.7 µM)	8 (≈ 13.7 µM)	64 (≈ 110 µM)	> 130	> 130	4 (≈ 6.87 µM)	1 (≈ 1.72 µM)	0.5 (≈ 0.858 µM)	>130.05	>130.05
CN(C)[C@@H]1C(O)=C(C(N)=O)C(=O)[C@@]2(O)C(O)=C3C(=O)c4c(O)ccc(C(=O)CNCc5ccccn5)c4C[C@H]3C[C@@H]12 [BY]	64 (≈ 114 µM)	64 (≈ 114 µM)	64 (≈ 114 µM)	64 (≈ 114 µM)	> 13.4	> 13.4	32 (≈ 56.9 µM)	2 (≈ 3.56 µM)	4 (≈ 7.11 µM)	>133.75	>133.75
CN(C)[C@@H]1C(O)=C(C(N)=O)C(=O)[C@@]2(O)C(O)=C3C(=O)c4c(O)ccc(C(=O)CNCC(N)=O)c4C[C@H]3C[C@@H]12 [BZ]	64 (≈ 121 µM)	64 (≈ 121 µM)	64 (≈ 121 µM)	64 (≈ 121 µM)	> 119	> 119	64 (≈ 121 µM)	4 (≈ 7.57 µM)	4 (≈ 7.57 µM)	>118.96	>118.96
COC(C)CNCC(=O)c1ccc(O)c2c1C[C@H]1C[C@H]3[C@H](N(C)C)C(O)=C(C(N)=O)C(=O)[C@@]3(O)C(O)=C1C2=O (stereo partly drawn) [CA]	64 (≈ 118 µM)	32 (≈ 58.9 µM)	32 (≈ 58.9 µM)	64 (≈ 118 µM)	> 146	> 146	32 (≈ 58.9 µM)	4 (≈ 7.36 µM)	2 (≈ 3.68 µM)	>145.98	>145.98
CN(C)[C@@H]1C(O)=C(C(N)=O)C(=O)[C@@]2(O)C(O)=C3C(=O)c4c(O)ccc(C(=O)CNc5cccnc5)c4C[C@H]3C[C@@H]12 [CB]	64 (≈ 117 µM)	64 (≈ 117 µM)	64 (≈ 117 µM)	64 (≈ 117 µM)	> 153	110	64 (≈ 117 µM)	16 (≈ 29.2 µM)	32 (≈ 58.3 µM)	>152.86	>152.86
CN(C)[C@@H]1C(O)=C(C(N)=O)C(=O)[C@@]2(O)C(O)=C3C(=O)c4c(O)ccc(C(=O)CNCc5ccco5)c4C[C@H]3C[C@@H]12 [CC]	64 (≈ 116 µM)	32 (≈ 58 µM)	32 (≈ 58 µM)	64 (≈ 116 µM)	> 44.7	> 44.7	16 (≈ 29 µM)	1 (≈ 1.81 µM)	2 (≈ 3.63 µM)	>144.12	>144.12
CN(C)c1cc(-c2cccc(C(N)=O)c2)c(O)c2c1C[C@H]1C[C@H]3[C@H](N(C)C)C(O)=C(C(N)=O)C(=O)[C@@]3(O)C(O)=C1C2=O [CD]	64 (≈ 111 µM)	64 (≈ 111 µM)	64 (≈ 111 µM)	64 (≈ 111 µM)	> 45.3	> 45.3	32 (≈ 55.5 µM)	8 (≈ 13.9 µM)	16 (≈ 27.7 µM)	>146.26	>146.26
